Laboratory results published in patent US20230270676A1 (priority 2020, published 2023).

Tests used:
Type in all cases: cell-based, human
HCT116 cells [1] = experiment: Plate cloning experiment for proliferation of tumor cells (HCT116); details: untreated group 62.0±7.6
Protocol: (§1) Each of the HCT116 and SW-480 cells in a logarithmic growth phase was prepared into a suspension with a 10% FBS-containing cell culture medium, blown into single cells, counted, inoculated into a six-well plate at a density of 1×10^3 cells/well, and cultivated in a 5% CO2/37° C. incubator with saturated humidity until the cells were adherent to the wall. […] After the administration, the cells were often observed, and when clone spheres visible to the naked eye appeared, the cell cultivation was stopped, the supernatant was discarded, the cells were washed twice with PBS, and 1 mL of 4% paraformaldehyde (PFA) was added to conduct fixation for 20 min. The fixation solution was removed, the cells were washed 3 times with PBS, a 1% gentian violet staining solution was added to conduct staining for 30 min, and then the cells were slowly rinsed with running water to remove the staining solution, dried in an oven at 37° C., and photographed and counted. Colony-forming efficiency (CFE)=(number of cell clones/number of inoculated cells)×100%. […] The colony number was calculated for each group.

SW-480 cells [2] = experiment: Plate cloning experiment for proliferation of tumor cells (SW-480); details: untreated group 36.1±7.5
Protocol: as §1

HCT116 cells [3] = experiment: Apoptosis of tumor cells by flow cytometry (Annexin V-FITC/PI); details: 48 h after administration, untreated group 16%
Protocol: 48 h after administration, a supernatant in each group was removed, the cells were washed with 1×PBS 3 times and then digested with EDTA-free trypsin for 2 min, and a 10% FBS-containing cell culture medium was added to stop the digestion. The resulting suspension was collected in a centrifuge tube and centrifuged at 1,000 rpm for 3 min, and resulting cells were washed twice with 1×PBS (4° C.) and resuspended in 400 μL of an Annexin V binding solution. 5 μL of an Annexin V-FITC staining solution was added, and the cells were incubated in the dark for 15 min. 10 μL of a PI staining solution was added, and the cells were incubated in the dark for 5 min. The cells were immediately tested by FC.

SW-480 cells [4] = experiment: Transwell migration experiment (SW-480); details: drug 15 μg/mL, 36 h, untreated group 100.0±11.7
Protocol: Each of the HCT116 and SW-480 cells in a logarithmic growth stage was taken and prepared into a suspension with a serum-free cell culture medium, counted, and diluted in folds, and a serum-free cell culture medium with the drug of 15 μg/mL was added. 200 μL of the suspension was inoculated into an upper chamber of a Transwell cell at a density of 1×10^5 cells/well, 500 μL of a 10% FBS-containing cell culture medium was added to a lower chamber of the Transwell cell, and the Transwell cell was incubated in a 5% CO2/37° C. incubator with saturated humidity for 36 h. The number of cells passing through the cell was counted, and cells in the upper chamber were gently wiped off with a cotton swab. Cells in the lower chamber were fixed with formaldehyde for 15 min, then stained with a 1% gentian violet staining solution for 30 min, and observed and counted under a microscope.

Compound `CO[C@H]1C[C@@H]2CC[C@@H](C)[C@@](O)(O2)C(=O)C(=O)N2CCCC[C@H]2C(=O)O[C@H]([C@H](C)C[C@@H]2CC[C@@H](O)[C@H](OC)C2)CC(=O)[C@H](C)/C=C(\C)[C@@H](O)[C@@H](OC)C(=O)[C@H](C)C[C@H](C)/C=C/C=C/C=C/1C` [free RAPA, rapamycin] has a Colony number (HCT116 cells [1]) of 49.2±5.2, a Colony number (SW-480 cells [2]) of 33.2±3.7 and an Apoptosis rate (HCT116 cells [3]) of 21%. For the same compound, the “Percentage of cells passing through the cell” value (SW-480 cells [4]) was 57.4±10.6%.
